Values after ≈ are worked out from the molar mass of the structure shown.
How the values were obtained:
Type in all cases: functional
[1] = test system: Candida albicans; experiment: Antifungal activity against Candida albicans ATCC 10231 by micro-broth dilution method
[2] = test system: Candida tropicalis; experiment: Antifungal activity against Candida tropicalis C131 by micro-broth dilution method
[3] = test system: Saccharomyces cerevisiae; experiment: Antifungal activity against Saccharomyces cerevisiae ATCC 9763 by microbroth dilution method
[4] = test system: Cryptococcus neoformans; experiment: Antifungal activity against Cryptococcus neoformans ATCC 32264 by microbroth dilution method
[5] = test system: Aspergillus fumigatus; experiment: Antifungal activity against Aspergillus fumigatus ATCC 26934 by micro-broth dilution method
[6] = test system: Aspergillus flavus; experiment: Antifungal activity against Aspergillus flavus ATCC 9170 by micro-broth dilution method
[7] = test system: Trichophyton rubrum; experiment: Antifungal activity against Trichophyton rubrum C113 by microbroth dilution method
[8] = test system: Aspergillus niger; experiment: Antifungal activity against Aspergillus niger ATCC 9029 by micro-broth dilution method
[9] = test system: Nannizzia gypsea; experiment: Antifungal activity against Microsporum gypseum C115 by microbroth dilution method
[10] = test system: Trichophyton mentagrophytes; experiment: Antifungal activity against Trichophyton mentagrophytes ATCC 9972 by micro-broth dilution method
[11] = test system: Cryptococcus neoformans; experiment: Antifungal activity against Cryptococcus neoformans IM 983040 by micro-broth dilution method
[12] = test system: Cryptococcus neoformans; experiment: Antifungal activity against Cryptococcus neoformans IM 972724 by micro-broth dilution method
[13] = test system: Cryptococcus neoformans; experiment: Antifungal activity against Cryptococcus neoformans IM 042074 by micro-broth dilution method
[14] = test system: Cryptococcus neoformans; experiment: Antifungal activity against Cryptococcus neoformans IM 983036 by micro-broth dilution method
[15] = test system: Cryptococcus neoformans; experiment: Antifungal activity against Cryptococcus neoformans IM 00319 by microbroth dilution method
[16] = test system: Cryptococcus neoformans; experiment: Antifungal activity against Cryptococcus neoformans IM 972751 by microbroth dilution method
[17] = test system: Cryptococcus neoformans; experiment: Antifungal activity against Cryptococcus neoformans IM 031631 by micro-broth dilution method
[18] = test system: Cryptococcus neoformans; experiment: Antifungal activity against Cryptococcus neoformans IM 031706 by micro-broth dilution method
[19] = test system: Cryptococcus neoformans; experiment: Antifungal activity against Cryptococcus neoformans IM 961951 by micro-broth dilution method

| MIC [1] | MIC [2] | MIC [3] | MIC [4] | MIC [5] | MIC [6] | MIC [7] | MIC [8] | MIC [9] | MIC [10] | SMILES | MIC [11] | MIC [12] | MIC [13] | MIC [14] | MIC [15] | MIC [16] | MIC [17] | MIC [18] | MIC [19] |
| --- | --- | --- | --- | --- | --- | --- | --- | --- | --- | --- | --- | --- | --- | --- | --- | --- | --- | --- | --- |
| > 250 µg/mL | 250 µg/mL (≈ 1250 µM) | 250 µg/mL (≈ 1250 µM) | > 250 µg/mL | > 250 µg/mL | > 250 µg/mL | 25 µg/mL (≈ 125 µM) | > 250 µg/mL | 50 µg/mL (≈ 251 µM) | 25 µg/mL (≈ 125 µM) | Oc1ccc(CNc2ccccc2)cc1 | – | – | – | – | – | – | – | – | – |
| – | – | – | – | – | – | – | – | – | – | C[C@@H](c1ncncc1F)[C@](O)(Cn1cncn1)c1ccc(F)cc1F [VORICONAZOLE] | < 0.015 µg/mL | < 0.015 µg/mL | < 0.015 µg/mL | < 0.015 µg/mL | 0.03 µg/mL (≈ 0.0859 µM) | 0.25 µg/mL (≈ 0.716 µM) | 0.5 µg/mL (≈ 1.43 µM) | 0.015 µg/mL (≈ 0.0429 µM) | 0.03 µg/mL (≈ 0.0859 µM) |
| > 250 µg/mL | > 250 µg/mL | > 250 µg/mL | > 250 µg/mL | > 250 µg/mL | > 250 µg/mL | 250 µg/mL (≈ 1260 µM) | > 250 µg/mL | > 250 µg/mL | 250 µg/mL (≈ 1260 µM) | N#CC(Nc1ccccc1)c1ccco1 (centres undefined) | – | – | – | – | – | – | – | – | – |
| 62.5 µg/mL (≈ 279 µM) | 62.5 µg/mL (≈ 279 µM) | 250 µg/mL (≈ 1120 µM) | 62.5 µg/mL (≈ 279 µM) | 125 µg/mL (≈ 559 µM) | 250 µg/mL (≈ 1120 µM) | 62.5 µg/mL (≈ 279 µM) | 250 µg/mL (≈ 1120 µM) | 62.5 µg/mL (≈ 279 µM) | 62.5 µg/mL (≈ 279 µM) | Clc1ccc(NCc2ccsc2)cc1 | – | – | – | – | – | – | – | – | – |
| 100 µg/mL (≈ 504 µM) | 50 µg/mL (≈ 252 µM) | 100 µg/mL (≈ 504 µM) | 50 µg/mL (≈ 252 µM) | 100 µg/mL (≈ 504 µM) | 200 µg/mL (≈ 1010 µM) | 25 µg/mL (≈ 126 µM) | 100 µg/mL (≈ 504 µM) | 50 µg/mL (≈ 252 µM) | 25 µg/mL (≈ 126 µM) | Cc1ccc(NCc2ccncc2)cc1 | – | – | – | – | – | – | – | – | – |
| 250 µg/mL (≈ 1440 µM) | 250 µg/mL (≈ 1440 µM) | 250 µg/mL (≈ 1440 µM) | 125 µg/mL (≈ 722 µM) | 250 µg/mL (≈ 1440 µM) | 250 µg/mL (≈ 1440 µM) | 125 µg/mL (≈ 722 µM) | 250 µg/mL (≈ 1440 µM) | 250 µg/mL (≈ 1440 µM) | 125 µg/mL (≈ 722 µM) | c1ccc(NCc2ccoc2)cc1 | – | – | – | – | – | – | – | – | – |
| > 250 µg/mL | > 250 µg/mL | > 250 µg/mL | 250 µg/mL (≈ 1170 µM) | > 250 µg/mL | > 250 µg/mL | 62.5 µg/mL (≈ 293 µM) | > 250 µg/mL | 125 µg/mL (≈ 586 µM) | 62.5 µg/mL (≈ 293 µM) | C=CCC(Nc1ccccc1)c1ccoc1 (centres undefined) | – | – | – | – | – | – | – | – | – |
| 100 µg/mL (≈ 523 µM) | 125 µg/mL (≈ 654 µM) | 125 µg/mL (≈ 654 µM) | 100 µg/mL (≈ 523 µM) | 100 µg/mL (≈ 523 µM) | > 250 µg/mL | 25 µg/mL (≈ 131 µM) | 250 µg/mL (≈ 1310 µM) | 100 µg/mL (≈ 523 µM) | 62.5 µg/mL (≈ 327 µM) | Fc1ccc(NCc2ccco2)cc1 | – | – | – | – | – | – | – | – | – |
| 250 µg/mL (≈ 1320 µM) | 250 µg/mL (≈ 1320 µM) | 250 µg/mL (≈ 1320 µM) | 250 µg/mL (≈ 1320 µM) | 250 µg/mL (≈ 1320 µM) | 250 µg/mL (≈ 1320 µM) | 125 µg/mL (≈ 660 µM) | 250 µg/mL (≈ 1320 µM) | 250 µg/mL (≈ 1320 µM) | 125 µg/mL (≈ 660 µM) | c1ccc(NCc2ccsc2)cc1 | – | – | – | – | – | – | – | – | – |
